According to PubChem BioAssay (NCI):
Where “and” joins values, the source holds several entries; their conditions need not be identical. Identical values can stand only once.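 How tested: cells in 96-well plates exposed to compound for 48 hours at five concentrations. GI50 is the concentration that inhibits growth by half. TGI is the concentration that stops growth completely.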

Assays:
Assay in all cases: growth of human tumour cells (NCI), 48 h
NCI/ADR-RES ovarian = system: NCI/ADR-RES ovarian
CCRF-CEM leukemia = system: CCRF-CEM leukemia
SK-MEL-28 melanoma = system: SK-MEL-28 melanoma
HOP-62 NSCLC = system: HOP-62 NSCLC
SK-MEL-5 melanoma = system: SK-MEL-5 melanoma
NCI-H23 lung = system: NCI-H23 lung
786-0 renal = system: 786-0 renal
RXF 393 renal = system: RXF 393 renal
DU-145 prostate = system: DU-145 prostate
SF-539 CNS = system: SF-539 CNS

Row | Compound | GI50 (NCI/ADR-RES ovarian) [µM] | TGI (NCI/ADR-RES ovarian) [µM] | GI50 (CCRF-CEM leukemia) [µM] | TGI (CCRF-CEM leukemia) [µM] | GI50 (SK-MEL-28 melanoma) [µM] | TGI (SK-MEL-28 melanoma) [µM] | GI50 (HOP-62 NSCLC) [µM] | TGI (HOP-62 NSCLC) [µM] | GI50 (SK-MEL-5 melanoma) [µM] | TGI (SK-MEL-5 melanoma) | GI50 (NCI-H23 lung) [µM] | TGI (NCI-H23 lung) | GI50 (786-0 renal) [µM] | TGI (786-0 renal) [µM] | GI50 (RXF 393 renal) [µM] | TGI (RXF 393 renal) | GI50 (DU-145 prostate) [µM] | TGI (DU-145 prostate) | GI50 (SF-539 CNS) [µM] | TGI (SF-539 CNS) [µM]
1 | COc1c(C)c2c(c(O)c1C/C=C(\C)CCC(=O)OCCN1CCOCC1)C(=O)OC2 | 0.471 | > 100 | 0.187 | > 100 | 0.236 | > 100 | 0.457 | > 100 | 0.383 | > 100 µM | 0.245 | > 100 µM | 0.385 | > 100 | 0.774 | > 100 µM | 0.415 | > 100 µM | 0.375 | > 100
2 | CN(C)NC1=NS(=O)(=O)c2cc3c(cc2S1)N(N(C)C)C(=O)c1cc2c(cc1N(N(C)C)C3=O)SC(NN(C)C)=NS2(=O)=O |  | > 10 |  | > 10 |  | > 10 |  | > 10 |  | > 10 µM |  | > 10 µM |  | > 10 |  | > 10 µM |  | > 10 µM |  | > 10
3 | CN(C)CCCN=C(N)N |  | > 100 |  | > 100 |  | > 100 |  | > 100 |  | > 100 µM |  | > 100 µM |  | > 100 |  | > 100 µM |  | > 100 µM |  | > 100
4 | O=C(NC1CC1)c1ccc(-c2nc3ccc4[nH]ncc4c3c3c2CCCC3)cc1 | 6.56 | > 50 | 2.06 | > 50 | 2.3 | 12.1 | 1.25 | 24.8 | 2.67 | 9.83 µM | 3.41 | 31.3 µM | 2.11 | 12.3 | 0.967 | 4.03 µM | 2.43 | 20.2 µM | 1.32 | 6.68
5 | N#CCN1CCCCCc2ccccc21 |  | > 100 |  | > 100 |  | > 100 |  | > 100 |  | > 100 µM |  | > 100 µM |  | > 100 |  | > 100 µM |  | > 100 µM |  | > 100
6 | N#CC1=C(N)NC(=S)NC12Nc1ccccc1O2 (stereo unspecified) | 20.5 | 69.6 | 61.7 | > 100 | 45.7 | > 100 | 17.5 | 57.7 | 27.1 | 85.4 µM | 20.4 | 69.7 µM | 30.1 | > 100 | > 100 | > 100 µM | 55.1 | > 100 µM | 45.8 | > 100
7 | N#CC1=C(N)N=C(N2CCCCC2)C(C#N)C12Nc1ccccc1S2 (stereo unspecified) | 20 | 68.6 |  |  | 26.6 | > 100 | 27.7 | > 100 | 19.6 | 42.3 µM | 16.7 | 52.8 µM | 26.5 | 79.2 | 27 | 65.1 µM | 43 | > 100 µM | 30.7 | 75.4
8 | c1ccc(C(=NNc2nc3ccccc3o2)c2ccccn2)nc1 | 0.0386 |  | 0.033 |  | 0.124 | 48.6 | 0.0532 |  | 0.163 | 1.18 µM and 0.491 µM | 0.0617 | 26.6 µM and 27.9 µM | 0.125 |  |  | 5.96 µM and 3.95 µM | 0.0775 | 19.4 µM and > 34.3 µM | 0.112 | 
9 | CCOC(=O)CCCn1c(SC)nc2cc(-c3ccco3)[nH]c2c1=O | 72.9 | > 100 | > 100 | > 100 | > 100 | > 100 | 37 | > 100 | > 100 | > 100 µM | 90.5 | > 100 µM | 34.2 | > 100 | 12 | 30.6 µM | > 100 | > 100 µM | 20.4 | 53.2
10 | CC(=O)C1CC2(c3ccc(C)cc3)C(c3ccc(C)cc3)=C(c3ccc(C)cc3)C1(c1ccc(C)cc1)S2=O (stereo unspecified) | > 100 | > 100 | > 100 | > 100 | > 100 | > 100 | > 100 | > 100 | > 100 | > 100 µM | > 100 | > 100 µM | > 100 | > 100 | > 100 | > 100 µM | > 100 | > 100 µM | > 100 | > 100
11 | CC([C@H]1CCC2C3CCC4C[C@@H](NC=O)CC[C@]4(C)C3CC[C@@]21C)N(C)C (stereo partly specified) | 6.02 | 21.4 | 2.31 | 10.9 | 1.65 | 3.08 | 2.15 | 5.19 | 1.37 | 2.74 µM | 4.73 | 19 µM | 1.99 | 4.15 | 1.77 | 4.15 µM | 4.84 | 17.5 µM | 1.37 | 2.79
12 | CC1(C)COCN1COC1CCCCC1 |  | > 100 |  | > 100 |  | > 100 |  | > 100 |  | > 100 µM |  | > 100 µM |  | > 100 |  | > 100 µM |  | > 100 µM |  | > 100
13 | O=C1C(=Cc2ccco2)C(=O)C2CCCCC12 (stereo unspecified) |  | > 100 |  | > 100 |  | > 100 |  | > 100 |  | > 100 µM |  | > 100 µM |  | > 100 |  | > 100 µM |  | > 100 µM |  | > 100
14 | O=C1C(Cl)=C(Oc2ccc([N+](=O)[O-])cc2)C(=O)c2c(O)ccc(O)c21 |  | > 100 |  | 12.9 |  | > 76.2 |  | > 100 |  | > 100 µM |  | > 100 µM |  | > 100 |  | 52.5 µM |  | > 100 µM |  | > 100
15 | CCC1=C[C@@H]2CN(C1)Cc1c([nH]c3ccccc13)[C@@](C(=O)OC)(c1cc3c(cc1OC)N(C=O)[C@H]1[C@@](O)(C(=O)OC)[C@H](OC(C)=O)[C@]4(CC)[C@@H]5C[C@@H]5CN5CC[C@]31[C@@H]54)C2 | 0.632 | > 6.25 | < 0.000625 | > 6.25 | 0.0014 | > 6.25 | 0.00158 | > 6.25 | 0.000921 | 0.0315 µM | 0.00318 | > 6.25 µM | 0.00587 | > 3.19 | 0.00155 | > 6.25 µM | < 0.000625 |  | 0.000646 | 0.0201
